# Test results published in patent US9926354B2, “Amyloid precursor protein (APP) based Ã#-secretase inhibitor peptides, and methods of use” (UNIVERSITY OF SOUTH FLORIDA, priority 2014, dated 2018).
# Experiments:
# [1] = tested on: CHO cells over-expressing human Swedish mutant APP (CHO/APPswe); test: Aβ and sAPPα production in cultured media of CHO/APPswe cells by ELISA; format: cell-based, Chinese hamster; settings: 20 μg/mL, 24 hours
# Description: (§1) Cell Culture—Chinese hamster ovary (CHO) cells engineered to express wild-type human APP (CHO/APPwt cells) or Swedish mutant human APP (CHO/APPswe cells) were kindly provided by Dr. Stefanie Hahn and Dr. Sascha Weggen (University of Heinrich Heine, Dusseldorf, Germany). As described previously (Obregon et al., 2012), these cells were cultured in Dulbecco's modified Eagle's medium (DMEM) with 10% fetal bovine serum (FBS), 1 mM sodium pyruvate, and 100 units/mL of penicillin and streptomycin.
# (§2) To confirm the binding of APPsweBBP with BACE1, CHO/APPwt cells were plated in 8-well chambers (5×10^5/well), incubated with TAT-APPsweBBP-biotin or APPsweBBP-biotin at 20 μM for 30 minutes, fixed with 4% paraformaldehyde for 20 minutes, washed and permeabilized with 0.5% Triton X-100. Following application of blocking buffer, these cells were stained with mouse anti-BACE1 and rabbit anti-biotin antibodies overnight at 4° C. for immunocytochemistry analysis. In order to determine the inhibitory effects of TAT-APPsweBBP on BACE1-mediated APP β-cleavage and subsequent Aβ production, both CHO/APPwt and CHO/APPswe cells were plated in 24 well-plates (3×10^5/well) and treated with TAT-APPsweBBP at 0-20 μM for 24 hours. The cultured media were collected for Aβ analysis by enzyme-linked immunosorbent assay (ELISA) and sAPPα analysis by ELISA and Western blot (WB). Cell lysates were also prepared for analysis of APP amyloidogenic processing by WB.
# (§3) ELISA—Mouse brains were homogenized in ice-cold lysis buffer for 30 seconds using a Minilys tissue homogenizer (Bertin Technologies, Montigny-le-Bretonneux, France) set at high speed, allowed to stand for 15 minutes at 4° C., and centrifuged at 15,000 rpm for 30 minutes. Soluble Aβ1-40/42 species and sAPPα were directly detected in cultured cell media or brain homogenates using the Aβ1-40/42 (Invitrogen) and sAPPα ELISA kits (IBL-America, Minneapolis, Minn., USA).
# (§4) To further examine the ability of the Swedish mutant APP BACE1 binding peptide/Tat fusion peptides to decrease Aβ production, CHO cells overexpressing either human wild-type APP (CHO/APPwt cells) or Swedish mutant APP (hereinafter referred to as “CHO/APPswe cells”) are treated with a variety of APP-based BACE1 inhibitor peptides, as shown in Table 1 and Table 2. Aβ production is determined using ELISA.
# [2] = tested on: CHO cells over-expressing human wild-type APP (CHO/APPwt); test: Aβ and sAPPα production in cultured media of CHO/APPwt cells by ELISA (24 hours); format: cell-based, Chinese hamster; settings: 20 μg/mL
# Description: as §1
# as §2, with “In order to determine the inhibitory effects of TAT-APPsweBBP on BACE1-mediated APP β-cleavage and subsequent Aβ production, both CHO/APPwt and CHO/APPswe cells were plated in 24 well-plates (3×10^5/well) and treated with TAT-APPsweBBP at 0-20 μM for 24 hours.” left out
# as §3, §4
# [3] = biological target: BACE1 (Homo sapiens, UniProt P56817); test: BACE1 activity assay (FRET, cell-free); format: biochemical; set-up: purchased Pan Vera Co., Madison, Wis., USA; settings: peptide final concentration 20 μM, 90 minutes, room temperature
# BACE1, sequence (P56817 46-501): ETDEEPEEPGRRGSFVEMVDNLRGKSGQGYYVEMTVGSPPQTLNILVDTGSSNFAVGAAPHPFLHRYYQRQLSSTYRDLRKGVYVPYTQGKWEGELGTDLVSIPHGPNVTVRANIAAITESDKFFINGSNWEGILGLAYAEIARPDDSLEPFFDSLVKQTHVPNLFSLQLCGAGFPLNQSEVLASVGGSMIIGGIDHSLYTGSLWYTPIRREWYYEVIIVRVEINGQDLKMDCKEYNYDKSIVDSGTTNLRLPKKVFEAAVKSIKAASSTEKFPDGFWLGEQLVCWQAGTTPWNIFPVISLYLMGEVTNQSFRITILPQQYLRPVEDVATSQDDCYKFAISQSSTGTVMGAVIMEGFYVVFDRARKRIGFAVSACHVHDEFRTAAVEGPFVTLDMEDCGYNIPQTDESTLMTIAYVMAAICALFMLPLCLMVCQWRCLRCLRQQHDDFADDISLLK
# Description: BACE1 Activity Assay—The BACE1 inhibiting activity of APP-based BACE1 site binding peptides were determined using a fluorescence resonance energy transfer (FRET) assay (Pan Vera Co., Madison, Wis., USA), which employs a recombinant baculovirus-expressed BACE1 and a specific substrate (Rh-[…]-quencher) that is based on the APPswe mutation. This specific peptide substrate becomes highly fluorescent upon enzymatic cleavage. A mixture of 10 μL of BACE1 (1.0 U/mL in 50 mM Tris, pH7.5, 10% glycerol), 10 μL of FRET-substrate, and 10 μL of the various APP-based BACE1 site binding peptides (final concentration 20 μM) were incubated for 90 minutes in the dark at room temperature. Then, 10 μL of BACE1 stop buffer (2.5 M sodium acetate) was added to the mixture. Fluorescence was read using a fluorometer, with excitation at 545 nm and emission at 585 nm.
# As a required enzyme for the generation of neurotoxic Aβ from APP, BACE1 is well established as an important mediator of AD β-amyloid pathology. As such, it has become an important target for new disease modifying therapeutics. However, since BACE1 also has important physiological roles, abolishment of the enzyme or its activity may lead to deleterious side effects as evidenced by numerous failed clinical trials discussed previously. […] Since previous studies have established a close relationship between α-helix structure and peptide-protein (or protein-protein) interactions (Azzarito, 2013; Rao et al., 2013), several APP based peptides were synthesized that might serve as a preferable substrate for BACE1. Importantly, these peptides were free of the Aβ-containing segment and, thus, cannot be amyloidogenic. In theory, these could be used to “hijack” the BACE1 processing of endogenous APP and lead to a decrease in cerebral Aβ. These BACE1 substrates and controls were incubated with recombinant BACE1 and percent of inhibition of the enzyme was calculated. […] These findings indicate that the α-helical TAT fusion domain may help to promote selective APPsweBBP proteolysis by BACE1, yielding substrate competition against human wild-type APP.
Sequence,Secreted Aβ40 (ng/mg; mean ± SD) [1] [ng/mg],Secreted Aβ42 (ng/mg; mean ± SD) [1] [ng/mg],Secreted sAPPα (ng/mg; mean ± SD) [1] [ng/mg],Secreted Aβ40 (ng/mg; mean ± SD) [2] [ng/mg],Secreted Aβ42 (ng/mg; mean ± SD) [2] [ng/mg],Secreted sAPPα (ng/mg; mean ± SD) [2] [ng/mg],% of inhibition (mean ± SD) of BACE1 [3] [%]
YGRKKRRQRRREVNLDAEFR (human-virus fusion) [APPsweBBP/TTD3],41.87 ± 5.76,8.43 ± 0.95,211.37 ± 18.93,8.74 ± 0.55,0.93 ± 0.048,5001.45 ± 271.34,
EVKMDAEFR (listed as Homo sapiens) [APPwtBBP3],61.36 ± 8.34,10.93 ± 1.98,199.83 ± 14.65,11.43 ± 1.01,1.09 ± 0.061,4699.78 ± 178.43,4.89 ± 0.06
IKTEEISEVKMDAEFR (listed as Homo sapiens) [APPwtBBP1],62.43 ± 9.43,8.91 ± 0.83,217.35 ± 17.32,11.23 ± 0.89,1.23 ± 0.043,4874.42 ± 174.56,
YGRKKRRQRRRIKTEEISEVKMDAEFR (human-virus fusion) [APPwtBBP/TTD1],64.21 ± 12.12,7.82 ± 0.67,229.45 ± 12.73,9.32 ± 0.68,1.01 ± 0.052,4688.12 ± 109.65,
YGRKKRRQRRREVKMDAEFR (human-virus fusion) [APPwtBBP/TTD3],57.45 ± 13.11,9.56 ± 1.11,201.23 ± 21.23,10.12 ± 1.11,,4699.15 ± 155.92,
EVNLDAEFR (listed as Homo sapiens) [APPsweBBP3],,7.12 ± 0.84,231.26 ± 14.28,10.23 ± 0.73,0.92 ± 0.041,4709.43 ± 123.74,14.32 ± 0.04
EISEVKMDAEFR (listed as Homo sapiens) [APPwtBBP],59.84 ± 11.23,9.78 ± 1.07,201.65 ± 11.54,10.89 ± 0.76,1.18 ± 0.051,4762.21 ± 164.89,16.23
YGRKKRRQRRREISEVKMDAEFR (human-virus fusion) [APPwtBBP/TTD2],40.32 ± 8.43,6.78 ± 0.92,267.92 ± 15.88,6.53 ± 0.81,0.68 ± 0.034,5291.14 ± 142.75,21.01 ± 1.42
